Here are results for 14 compounds from US9255100B2 (BAYER INTELLECTUAL PROPERTY GMBH, priority 2010, dated 2016).

In data set [1] the target is T1, N-terminally GST-tagged human full length recombinant Mps-1 kinase (Homo sapiens, UniProt P33981).
T1 construct: N-terminally GST-tagged human full length recombinant Mps-1 kinase; purchased Invitrogen, Karslruhe, Germany PV4071
T1 sequence (P33981 1-857): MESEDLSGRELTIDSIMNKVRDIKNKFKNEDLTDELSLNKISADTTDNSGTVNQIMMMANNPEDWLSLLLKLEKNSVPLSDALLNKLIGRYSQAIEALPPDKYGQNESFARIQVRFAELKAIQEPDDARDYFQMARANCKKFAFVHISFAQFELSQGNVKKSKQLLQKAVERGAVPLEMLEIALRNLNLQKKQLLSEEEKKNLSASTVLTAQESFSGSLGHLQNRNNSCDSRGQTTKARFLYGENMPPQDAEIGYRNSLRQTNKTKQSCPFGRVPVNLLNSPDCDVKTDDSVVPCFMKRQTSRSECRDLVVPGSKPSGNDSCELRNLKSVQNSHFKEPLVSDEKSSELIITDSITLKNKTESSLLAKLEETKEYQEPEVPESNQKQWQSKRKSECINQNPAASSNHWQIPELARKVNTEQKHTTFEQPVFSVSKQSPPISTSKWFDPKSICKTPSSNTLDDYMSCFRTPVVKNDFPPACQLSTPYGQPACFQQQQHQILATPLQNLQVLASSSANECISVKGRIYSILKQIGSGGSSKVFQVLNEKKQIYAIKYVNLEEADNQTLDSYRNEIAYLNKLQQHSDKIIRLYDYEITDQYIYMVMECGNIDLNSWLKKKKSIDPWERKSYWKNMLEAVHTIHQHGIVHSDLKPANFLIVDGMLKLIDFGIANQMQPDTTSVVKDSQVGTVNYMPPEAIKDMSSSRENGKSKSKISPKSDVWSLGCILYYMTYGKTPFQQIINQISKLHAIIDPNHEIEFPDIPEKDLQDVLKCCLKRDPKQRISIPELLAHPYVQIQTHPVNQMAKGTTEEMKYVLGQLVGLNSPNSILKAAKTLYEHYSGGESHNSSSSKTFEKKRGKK
In words: Mps-1 kinase assay (TR-FRET). It is filed as biochemical. As to conditions: Mps1 IC50 [nM], 10 μM ATP, 1 μM peptide substrate, 60 min at 22° C. The essentials:
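TR-FRET signal between a Europium anti-phospho-Ser/Thr antibody and streptavidin-XLent reported phosphorylation of a biotinylated peptide by GST-tagged full-length Mps-1. Enzyme was near 1 nM final, chosen per lot for linearity.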
For orientation: In TR-FRET formats the signal depends on donor and acceptor labels being close together.

Data set [2] deals with Hepatocytes from Han Wistar rats. In words: In vitro metabolic stability in rat hepatocytes (calculation of hepatic in vivo blood clearance and Fmax). It is filed as in vitro ADME. As to conditions: for Fmax [%]: maximal oral bioavailability calculated from half-life in rat hepatocytes, 1 μM test compound. As to the method:
Investigation of In Vitro Metabolic Stability in Rat Hepatocytes (Including Calculation of Hepatic In Vivo Blood Clearance (CL))
Hepatocytes from Han Wistar rats were isolated via a 2-step perfusion method. After perfusion, the liver was carefully removed from the rat: the liver capsule was opened and the hepatocytes were gently shaken out into a Petri dish with ice-cold WME. The resulting cell suspension was filtered through sterile gaze in 50 ml falcon tubes and centrifuged at 50×g for 3 min at room temperature. The cell pellet was resuspended in 30 ml WME and centrifuged through a Percoll® gradient for 2 times at 100×g. The hepatocytes were washed again with Williams' medium E (WME) and resuspended in medium containing 5% FCS. Cell viability was determined by trypan blue exclusion.
For the metabolic stability assay liver cells were distributed in WME containing 5% FCS to glass vials at a density of 1.0×10^6 vital cells/ml. The test compound was added to a final concentration of 1 μM. During incubation, the hepatocyte suspensions were continuously shaken and aliquots were taken at 2, 8, 16, 30, 45 and 90 min, to which equal volumes of cold methanol were immediately added. Samples were frozen at −20° C. over night, after subsequently centrifuged for 15 minutes at 3000 rpm and the supernatant was analyzed with an Agilent 1200 HPLC-system with LCMS/MS detection.
The half-life of a test compound was determined from the concentration-time plot. From the half-life the intrinsic clearances were calculated. Together with the additional parameters liver blood flow, amount of liver cells in vivo and in vitro. The hepatic in vivo blood clearance (CL) and the maximal oral bioavailability (Fmax) was calculated. The following parameter values were used: Liver blood flow—4.2 L/h/kg rat; specific liver weight—32 g/kg rat body weight; liver cells in vivo—1.1×10^8 cells/g liver, liver cells in vitro—0.5×10^6/ml.

Usually IC50 stands for the concentration that gives 50% inhibition.

Turning to `Cc1cc(-c2cnc3c(NCCN4CCOCC4)cc(Oc4cccc(F)c4F)nn23)ccc1C(=O)NC1CC1` [Example 536, N-cyclopropyl-4-[6-(2,3-difluorophenoxy)-8-{[2-(morpholin-4-yl)ethyl]amino}imidazo[1,2-b]pyridazin-3-yl]-2-methylbenzamide], the IC50 in data set [1] is 0.3 nM. For the same compound, the “Fmax [%]” value in data set [2] is recorded as 37%.
For the compound `Cc1cc(-c2cnc3c(NCC4CCN(C)CC4)cc(Oc4cccc(F)c4F)nn23)ccc1C(=O)NC1CC1` [Example 526, N-cyclopropyl-4-[6-(2,3-difluorophenoxy)-8-{[(1-methylpiperidin-4-yl)-methyl]amino}imidazo[1,2-b]pyridazin-3-yl]-2-methylbenzamide], the IC50 in data set [1] is 0.1 nM. Also, the “Fmax [%]” value in data set [2] is given as 50%.
As to `COc1ccc(Oc2cc(NCC3CCOCC3)c3ncc(-c4ccc(C(=O)NC5CC5)c(C)c4)n3n2)c(F)c1` [Example 445, N-cyclopropyl-4-{6-(2-fluoro-4-methoxyphenoxy)-8-[(tetrahydro-2H-pyran-4-ylmethyl)amino]imidazo[1,2-b]pyridazin-3-yl}-2-methylbenzamide], the IC50 in data set [1] stood at 0.2 nM. For the same compound, the “Fmax [%]” value in data set [2] is given as 61%.
For `O=C(NC1CC1)c1ccc(-c2cnc3c(NCCC(F)(F)F)cc(Oc4cccc(F)c4)nn23)cc1` [Example 463, N-cyclopropyl-4-{6-(3-fluorophenoxy)-8-[(3,3,3-trifluoropropyl)amino]imidazo[1,2-b]pyridazin-3-yl}benzamide], the “Fmax [%]” value in data set [2] is reported as 7%.
As to `Cc1ccc(F)cc1Oc1cc(NCCC(F)(F)F)c2ncc(-c3ccc(C(=O)NC4CC4)c(C)c3)n2n1` [Example 390, N-cyclopropyl-4-{6-(5-fluoro-2-methylphenoxy)-8-[(3,3,3-trifluoropropyl)amino]imidazo[1,2-b]pyridazin-3-yl}-2-methylbenzamide], the IC50 in data set [1] was determined as 0.1 nM. The “Fmax [%]” value in data set [2] is recorded as 55%.
For the compound `Cc1cc(-c2cnc3c(NCCC(F)(F)F)cc(Oc4cccc(F)c4)nn23)ccc1C(=O)NC1(C)CC1` [Example 461, 4-{6-(3-fluorophenoxy)-8-[(3,3,3-trifluoropropyl)amino]imidazo[1,2-b]pyridazin-3-yl}-2-methyl-N-(1-methylcyclopropyl)benzamide], the IC50 in data set [1] worked out at 0.2 nM. For the same compound, the “Fmax [%]” value in data set [2] was 75%.
For the compound `Cc1cc(-c2cnc3c(NCCS(C)(=O)=O)cc(Oc4cccc(F)c4F)nn23)ccc1C(=O)NC1CC1` [Example 516, N-cyclopropyl-4-[6-(2,3-difluorophenoxy)-8-{[2-(methylsulfonyl)ethyl]amino}imidazo[1,2-b]pyridazin-3-yl]-2-methylbenzamide], the half-inhibitory concentration (IC50) in data set [1] came to 0.3 nM. Moreover, the “Fmax [%]” value in data set [2] is given as 69%.
With `Cc1cc(-c2cnc3c(NCC4CCOCC4)cc(Oc4cccc(F)c4)nn23)ccc1C(=O)NC1CC1` [Example 323, N-cyclopropyl-4-{6-(3-fluorophenoxy)-8-[(tetra-hydro-2H-pyran-4-yl-methyl)amino]imidazo[1,2-b]pyridazin-3-yl}-2-methylbenzamide], the IC50 in data set [1] amounted to 0.2 nM. Also, in data set [2], the “Fmax [%]” value was 31%.
As to `COc1ccc(Oc2cc(NCC3CCOCC3)c3ncc(-c4ccc(C(=O)NC5CC5)cc4)n3n2)c(F)c1` [Example 444, N-cyclopropyl-4-{6-(2-fluoro-4-methoxyphenoxy)-8-[(tetrahydro-2H-pyran-4-ylmethyl)amino]imidazo[1,2-b]pyridazin-3-yl}benzamide], in data set [2], the “Fmax [%]” value is on record as 22%.
`CNc1cc(Oc2cccc(F)c2)nn2c(-c3ccc(C(=O)NC4CC4)c(C)c3)cnc12` [Example 510, N-cyclopropyl-4-[6-(3-fluoro-phenoxy)-8-(methylamino)imidazo[1,2-b]pyridazin-3-yl]-2-methylbenzamide]: in data set [1], the IC50 was determined as 0.1 nM. In data set [2], the “Fmax [%]” value was 39%.
`COCCNc1cc(Oc2cccc(F)c2)nn2c(-c3ccc(C(=O)NC4CC4)c(C)c3)cnc12` [Example 492, N-cyclopropyl-4-{6-(3-fluoro-phenoxy)-8-[(2-methoxyethyl)amino]imidazo[1,2-b]pyridazin-3-yl}-2-methylbenzamide]: in data set [1], the 50% inhibitory concentration (IC50) came out at 0.1 nM. Further, the “Fmax [%]” value in data set [2] is reported as 42%.
For the compound `Cc1ccc(F)cc1Oc1cc(NCC(C)(C)O)c2ncc(-c3ccc(C(=O)NC4CC4)c(C)c3)n2n1` [Example 391, N-cyclopropyl-4-{6-(5-fluoro-2-methylphenoxy)-8-[(2-hydroxy-2-methylpropyl)amino]imidazo[1,2-b]pyridazin-3-yl}-2-methylbenzamide], the half-maximal inhibitory concentration (IC50) in data set [1] was found to be 0.1 nM. Moreover, the “Fmax [%]” value in data set [2] is 47%.
`Cc1cc(-c2cnc3c(NCCC(F)(F)F)cc(Oc4cccc(F)c4)nn23)ccc1C(=O)NC1CC1` [Example 80, N-cyclopropyl-4-{6-(3-fluorophenoxy)-8-[(3,3,3-trifluoropropyl)amino]imidazo[1,2-b]pyridazin-3-yl}-2-methylbenzamide]: the IC50 in data set [1] is 0.2 nM. Further, in data set [2], the “Fmax [%]” value is reported as 56%. For the same compound, the “increase of metabolic stability” value in data set [2] (relative increase of Fmax (rat hepatocytes) against the comparison compound of the same table) was 81%.
With `Cc1cc(-c2cnc3c(NCCN4CCOCC4)cc(Oc4cccc(F)c4)nn23)ccc1C(=O)NC1CC1` [Example 500, N-cyclopropyl-4-[6-(3-fluoro-phenoxy)-8-{[2-(morpholin-4-yl)ethyl]amino}imidazo[1,2-b]pyridazin-3-yl]-2-methylbenzamide], in data set [1], the IC50 stood at 0.1 nM. In addition, in data set [2], the “Fmax [%]” value is reported as 40%.
